# Data as given in ChEMBL document CHEMBL1828616, “Novel terpene based 1,4,2-dioxazoles: synthesis, characterization, molecular properties and screening against Entamoeba histolytica” (Eur J Med Chem, 2011).
# pIC50: −log10 of the molar value.
# How the values were obtained:
# [1] = Cytotoxicity against rat H9c2 cells assessed as cell viability at 3.13 to 25 uM after 48 hrs by MTT assay; assay type: cell-based; details: read-out: Activity
# [2] = Selectivity index, ratio of IC50 for rat H9c2 cells to IC50 for Entamoeba histolytica HM-1:IMSS
# [3] = (§1) Cytotoxicity against rat H9c2 cells assessed as cell viability at 200 uM after 48 hrs by MTT assay; assay type: cell-based; details: H9c2 cells, read-out: Activity
# H9c2 [4] = assay: Cytotoxicity against rat H9c2 cells assessed as cell viability at 100 uM after 48 hrs by MTT assay; assay type: cell-based; details: h9c2, 48 h
# Entamoeba histolytica = assay: Antiamoebic activity against Entamoeba histolytica HM-1:IMSS by microdilution method; assay type: functional, organism-based
# H9c2 [5] = assay: Cytotoxicity against rat H9c2 cells assessed as cell viability at 50 uM after 48 hrs by MTT assay; assay type: cell-based; details: h9c2, 48 h
# [6] = Octanol-water partition coefficient, log P of the compound; assay type: physicochemical
# H9c2 [7] = assay: Cytotoxicity against rat H9c2 cells assessed as cell viability after 48 hrs by MTT assay; assay type: cell-based; details: H9c2, 48 h
# H9c2 [8] = assay: as §1; assay type: cell-based; details: h9c2, 48 h, 200 µM
# in vitro = details: rat, H9c2 cells
# Description: Cytotoxicity against rat H9c2 cells assessed as cell viability at 3.13 uM after 48 hrs by MTT assay
SMILES,viability at 48 h [1],Ratio IC50 [2],"viability at 48 h, 200 µM [3]",Activity (H9c2 [4]),pIC50 (Entamoeba histolytica),Activity (H9c2 [5]),logP [6],pIC50 (H9c2 [7]),Activity (H9c2 [8]),"viability at 48 h, 3.13 µM (in vitro)"
CC1(c2ccccn2)ON=C(c2ccc3c(c2)OCO3)O1 (configuration not stated),≥ 82%,>200,88%,Toxic,6.00,Toxic,2.34,< 3.70,,
c1coc(C2=NOC(c3ccc4c(c3)OCO4)O2)c1 (configuration not stated),≥ 82%,190.47,,Toxic,5.98,Toxic,2.97,3.70,Toxic,
CC(C)=CCC/C(C)=C/C1=NOC(C)(c2cccs2)O1 (configuration not stated),,,,,5.52,,5.67,,,
CC(C)=CCC/C(C)=C/C1=NOC(c2ccc3c(c2)OCO3)O1 (configuration not stated),,,,,5.83,,5.31,,,
c1csc(C2=NOC(c3ccc4c(c3)OCO4)O2)c1 (configuration not stated),,,,,5.61,,2.45,,,
c1ccc(C2ON=C(c3ccc4c(c3)OCO4)O2)nc1 (configuration not stated),≥ 82%,38.83,,Toxic,5.99,Toxic,1.8,4.40,Toxic,
CC(C)=CCC/C(C)=C/C1ON=C(c2cccs2)O1 (configuration not stated),,,,,5.52,,4.74,,,
CC1(c2ccco2)ON=C(c2ccc3c(c2)OCO3)O1 (configuration not stated),≥ 82%,>181.81,,Toxic,5.96,Toxic,2.99,< 3.70,Toxic,
c1csc(C2ON=C(c3ccc4c(c3)OCO4)O2)c1 (configuration not stated),,,,,5.46,,2.97,,,
Cc1ncc([N+](=O)[O-])n1CCO [METRONIDAZOLE],,>137.9,,Toxic,,Toxic,,< 3.70,Toxic,100%
CC(C)=CCC/C(C)=C/C1ON=C(c2ccc3c(c2)OCO3)O1 (configuration not stated),,,,,5.86,,5.44,,,
CC(C)=CCC/C(C)=C/C1=NOC(C)(c2ccco2)O1 (configuration not stated),,,,,5.69,,5.15,,,
CC(C)=CCC/C(C)=C/C1ON=C(c2ccccn2)O1 (configuration not stated),,,,,5.65,,4.08,,,
c1ccc(C2=NOC(c3ccc4c(c3)OCO4)O2)nc1 (configuration not stated),≥ 82%,>80.18,,Toxic,5.97,Toxic,1.8,4.07,Toxic,
CC(C)=CCC/C(C)=C/C1ON=C(c2ccco2)O1 (configuration not stated),,,,,5.56,,5.25,,,
CC(C)=CCC/C(C)=C/C1=NOC(c2cccs2)O1 (configuration not stated),,,,,5.54,,5.13,,,
CC1(c2cccs2)ON=C(c2ccc3c(c2)OCO3)O1 (configuration not stated),,,,,5.57,,3.51,,,
CC(C)=CCC/C(C)=C/C1=NOC(c2ccccn2)O1 (configuration not stated),,,,,5.53,,3.96,,,
c1coc(C2ON=C(c3ccc4c(c3)OCO4)O2)c1 (configuration not stated),≥ 82%,>183.48,,Toxic,5.96,Toxic,2.45,< 3.70,Toxic,
CC(C)=CCC/C(C)=C/C1=NOC(c2ccco2)O1 (configuration not stated),,,,,5.62,,4.61,,,
CC(C)=CCC/C(C)=C/C1=NOC(C)(c2ccccn2)O1 (configuration not stated),,,,,5.65,,4.5,,,
